Columns and labels:
MDA-MB-436 = assay: CTG experiment for cell viability (CellTiter-Glo, 96-well plate, 7 days); format: cell-based; details: Homo sapiens, MDA-MB-436, 168 h, MDA-MB-436 cells, 7 days culture with compound
Summary of the method: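 MDA-MB-436 cells in DMEM were plated in 96-well format, treated with compounds, and cultured 7 days at 37°C. After removing the medium, cells were given PBS plus CellTiter-Glo reagent, incubated 10 min at room temperature, and luminescence was read. Curves were fitted as for the enzyme assay.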

[1] = molecular target: T1, Recombinant human His6-USP1/His6-UAF1 complex protein (Homo sapiens, UniProt O94782); assay: In vitro inhibitory activity against USP1 (Ubiquitin Rhodamine 110 fluorescence detection, 384-well plate); format: biochemical; details: Ub-Rho substrate, 1 hour pre-incubation, read after 30 minutes
T1 construct: His6; purchased R&D E-568-050
Summary of the method: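 Fluorescence assay measuring inhibition of recombinant human His6-USP1/His6-UAF1 complex with Ubiquitin-Rhodamine 110 substrate. Compounds held as 50 mM stocks in 100% DMSO and dispensed by acoustic transfer into modified Tris assay buffer.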

T1 sequence (O94782 whole entry): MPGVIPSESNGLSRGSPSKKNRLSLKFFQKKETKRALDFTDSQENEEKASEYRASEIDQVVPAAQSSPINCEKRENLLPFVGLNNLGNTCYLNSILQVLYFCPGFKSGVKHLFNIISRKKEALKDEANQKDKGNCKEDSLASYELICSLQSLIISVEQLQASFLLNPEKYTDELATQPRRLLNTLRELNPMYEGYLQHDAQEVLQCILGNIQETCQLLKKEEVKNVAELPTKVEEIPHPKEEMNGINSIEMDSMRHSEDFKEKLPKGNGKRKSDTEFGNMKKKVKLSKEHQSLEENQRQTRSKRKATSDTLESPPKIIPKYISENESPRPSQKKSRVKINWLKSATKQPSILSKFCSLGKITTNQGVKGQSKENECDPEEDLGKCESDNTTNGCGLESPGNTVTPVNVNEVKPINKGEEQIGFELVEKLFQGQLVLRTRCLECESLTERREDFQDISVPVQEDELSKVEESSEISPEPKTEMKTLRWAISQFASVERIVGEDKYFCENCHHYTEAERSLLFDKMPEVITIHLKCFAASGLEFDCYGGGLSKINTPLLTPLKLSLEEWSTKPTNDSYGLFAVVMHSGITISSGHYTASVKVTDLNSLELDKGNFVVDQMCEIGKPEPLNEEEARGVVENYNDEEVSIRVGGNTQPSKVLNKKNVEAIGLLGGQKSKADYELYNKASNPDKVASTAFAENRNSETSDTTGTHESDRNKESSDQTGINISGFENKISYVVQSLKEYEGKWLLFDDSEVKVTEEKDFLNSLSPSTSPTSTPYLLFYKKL
T1 sequence (Q8TAF3 whole entry partner): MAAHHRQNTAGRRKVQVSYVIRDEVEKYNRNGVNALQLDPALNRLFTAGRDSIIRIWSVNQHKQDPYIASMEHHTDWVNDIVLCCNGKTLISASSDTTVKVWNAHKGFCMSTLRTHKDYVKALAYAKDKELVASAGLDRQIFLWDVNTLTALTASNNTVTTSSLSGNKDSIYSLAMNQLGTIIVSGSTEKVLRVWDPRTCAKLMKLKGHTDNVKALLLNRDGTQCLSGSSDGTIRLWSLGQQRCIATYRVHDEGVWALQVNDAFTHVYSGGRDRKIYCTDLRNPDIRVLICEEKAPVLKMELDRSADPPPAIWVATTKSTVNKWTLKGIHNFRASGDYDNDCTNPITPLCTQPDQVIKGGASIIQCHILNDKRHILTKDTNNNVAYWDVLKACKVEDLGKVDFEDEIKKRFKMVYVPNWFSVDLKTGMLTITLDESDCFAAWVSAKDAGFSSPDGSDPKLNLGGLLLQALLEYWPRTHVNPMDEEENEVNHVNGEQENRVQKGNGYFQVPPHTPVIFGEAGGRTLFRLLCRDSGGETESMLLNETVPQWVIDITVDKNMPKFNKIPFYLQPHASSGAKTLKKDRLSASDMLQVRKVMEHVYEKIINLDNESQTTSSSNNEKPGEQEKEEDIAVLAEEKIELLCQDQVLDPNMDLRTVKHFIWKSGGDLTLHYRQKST

Row | Structure (SMILES) | IC50 (MDA-MB-436) [nM] | IC50 [1] [nM]
1 | CC(C)c1ccccc1-c1ncc(Cl)c(NCc2ccc(-c3nc(C(F)(F)F)cn3C)cc2)n1 [Example 38, 5-Chloro-2-(2-isopropylphenyl)-N-(4-(1-methyl-4-(trifluoromethyl)-1H-imidazol-2-yl)benzyl)pyrimidin-4-amine] | 13.7 | 1.1
2 | CCOCCOc1ccc(CNc2nc(-c3c(OC)ncnc3C3CC3)ncc2OC)cc1 [Example 99, 4'-Cyclopropyl-N-(4-(2-ethoxyethoxy)benzyl)-5,6'-dimethoxy-[2,5'-bipyrimidin]-4-amine] | 445 | 15.1
3 | COc1ncnc(C2CC2)c1-c1ncc(C#N)c(NCc2ccc(-c3nc(C(F)(F)F)cn3C)cc2)n1 [Example 131, 4'-Cyclopropyl-6'-methoxy-4-((4-(1-methyl-4-(trifluoromethyl)-1H-imidazol-2-yl)benzyl)amino)-[2,5'-bipyrimidine]-5-carbonitrile] | 45.5 | 7.4
4 | C#CCN(Cc1ccc(-c2nc(C(F)(F)F)cn2C)cc1)c1nc(-c2c(OC)ncnc2C2CC2)ncc1OC [Example 139, 4'-Cyclopropyl-5,6'-dimethoxy-N-(4-(1-methyl-4-(trifluoromethyl)-1H-imidazol-2-yl)benzyl)-N-(prop-2-yn-1-yl)-[2,5'-bipyrimidin]-4-amine] | 5 | 5.2
5 | COc1cnc(-c2ccccc2C(C)C)nc1NCc1ccc(-c2nc(C(F)(F)F)cn2C)cc1 [Example 4, 2-(2-Isopropylphenyl)-5-methoxy-N-(4-(1-methyl-4-(trifluoromethyl)-1H-imidazol-2-yl)benzyl)pyrimidin-4-amine] | 0.3 | 1.2

Reference: patent EP4741386A1 (Jiangsu Yahong Meditech Co., Ltd., priority 2023, dated 2025)
